# Source: a melting point compilation (Tetko et al.; mined from patent text by program, amines drawn as free bases though some values may be those of a salt)
row,Compound,melting point
1,CS(=O)(=O)NC(=O)COc1ccc(CCCS(=O)(=O)c2ccc(Cl)cc2)cc1NC(=O)c1cccc(OCc2nc3ccccc3s2)c1,153 °C
2,CCOCc1nnc2c(C)c(Cl)ccn12,92.9 °C
3,COc1cc(OC)n2sc(=NS(=O)(=O)c3c(-c4nnn(C)n4)cnn3C)nc2n1,182 to 183 °C
4,CCN(CC)C(=O)Cc1c(-c2ccc(OC)cc2)nn2c(C)cc(C)nc12,120 to 124 °C
5,CSC(=S)NN=Cc1ccccn1,171 to 173 °C
6,Cc1cc(O)c(SCC(C)C)c(=O)o1,106 to 108 °C
7,FN(F)CC1(CN(F)F)COC1,43.5 to 44.5 °C
8,CC(=O)N1CCC(CC(O)c2ccc(N(C)C)cc2)CC1 (centres undefined),119 to 120 °C
9,CCOC(=O)C1=C(NC(=O)Nc2cc(C(=O)OC(C)C)c(Cl)cc2F)CCCC1,129 to 130 °C
10,CC(=O)CCc1ccc(C(=O)Nc2ccc3cc(CN4CCCC4)cnc3c2C)cc1,106 to 108 °C
11,Cn1c(=O)c2cccnc2n(C)c1=O,160 to 161 °C
12,Cn1ncc(C2=CC(=O)CCC2)c1S(N)(=O)=O,160 to 165 °C
13,CCCCN(CCCC)c1ccc(C=Cc2cc(C)c(C=CC3=C(C#N)C(=C(C#N)C#N)OC3(c3ccccc3)C(F)(F)F)cc2C)c(OC)c1 (centres undefined),177 to 179 °C
14,Cn1nnc(-c2ccc(-c3nnn(C)n3)nc2)n1,225 to 226 °C
15,Cc1ccc(NC(=O)C2C(=O)C3CC[C@](C)(C2=O)C3(C)C)cc1 (some centres undefined),80 to 82 °C
16,O=C(O)Cn1cc(Cl)cnc1=O,186 to 188 °C
17,COc1cc(C(=O)CCCN2CCC(OC(=O)c3cc(Cl)c(N)c4c3OCC4)C(OC)C2)cc(OC)c1OC (centres undefined),132 °C
18,CC(NC(=S)Nc1ccc(N2CCCCC2)nc1)C(C)(C)C (centres undefined),151 to 153 °C
19,CN(C)C=NC(=Nc1ccccc1)N1CCOCC1,109 to 112 °C

row,Compound,melting point
1,CCn1c(=O)c2cccc3c2n(c1=O)-c1cc(C(F)(F)F)ccc1S3,150 to 152 °C
2,Cc1noc([C@@H](Cc2ccccc2)NC(=O)[C@@H](Cc2ccc3ccccc3c2)NC(=O)C=CC(C)(C)NC(=O)OC(C)(C)C)n1,161 to 167 °C
3,CCCCn1c(N)cc(=O)n(CCCC)c1=O,90.1 to 92.4 °C
4,COC1=CC(=O)C(O)=C(CCCCCCCC(O)C(O)CCCCCCCC2=C(O)C(=O)C=C(OC)C2=O)C1=O (centres undefined),132 to 134 °C
5,CN1CCN(c2cccc3c2C[C@H](NC(=O)c2ccc(Cl)cc2)CC3)CC1,204 to 205 °C
6,CCOC(=O)C(=O)Nc1nc(C)c(C)s1,86 to 88 °C
7,CCCCCCC(C)(C)c1cc(O)c2c(c1)oc(=O)c1ccc(OC)cc12,149 to 151 °C
8,CC(C)(C)c1cccc(S(=O)(=O)n2c(Cc3ccc(-c4n[nH]c(=O)o4)cc3)cc3cc(C(F)(F)F)ccc32)c1,92 °C
9,CC1=CC(C)(C)Nc2cc3oc(=O)cc(C)c3cc21,270 to 274 °C
10,CCOC(=O)C(=CNC1CC1)C(=O)c1cc(F)c(F)c(C)c1F,73 to 75 °C
11,CN(Cc1ccc(NC(=O)C2=Cc3cc(-c4cccc(Cl)c4)ccc3S(=O)(=O)CC2)cc1)C1CCOCC1,221 to 224 °C
12,N#Cc1ccc(COc2ccc(-c3ccc(C4Cc5ccccc5C(O)C4)cc3)cc2)cc1 (centres undefined),172 °C
13,CCNC(=O)c1ccc2ccc(OC)cc2c1OC(C)C,78 to 79 °C
14,O=c1c2c(cc3n1CCCS3)CCCC2,123 to 124 °C
15,CN1CCN(c2cc3c(cc2C(F)(F)F)[nH]c(=O)c2n[nH]c(=O)n23)CC1,> 300 °C
16,O=C(NCCCCO)c1c([N+](=O)[O-])ccc(N(CCBr)CCBr)c1[N+](=O)[O-],114 to 117 °C
17,CCOC(=O)c1c(Cl)nc(-c2cccc([N+](=O)[O-])c2)c([N+](=O)[O-])c1C(=O)OCC,90 to 91 °C
18,CCOC(=O)c1ccc(/C=C(\CCCc2ccc(OC)cc2)Cn2ccnc2)cc1,92 to 94 °C
19,O=C(O)c1cn(-n2cnnc2)c2nc(Cl)c(F)cc2c1=O,230 °C

row,Compound,melting point
1,CCOC(=O)COc1cc(F)c(C)cc1C(=O)NCc1ccc(Br)cc1F,128 to 129 °C
2,CCOCN(C(=O)CCl)c1c(OC)cccc1OC,95 to 97 °C
3,COc1cccc(CCC(=O)C2C(=O)CCC2=O)c1O,108 to 109 °C
4,CCOP(=O)(OCC)C(O)=C1CCc2cc(CC3CCCC3)c(Cl)cc21,126 °C
5,Cc1noc(C)c1S(=O)(=O)n1c(Br)nc(Br)c1Br,165 to 170 °C
6,CCOCc1cc2cc(Cl)ccc2oc1=Nc1ccc(C)cc1,76 to 77 °C
7,CCCCCCCCCCOc1ccc(Oc2cccc(C(=O)O)c2)cc1CCC(=O)O,102 to 104 °C
8,N#Cc1ccc(OCCCCl)cc1,40 to 44 °C
9,COC(=O)c1ccc(C(=O)NC(C)C)cc1S(N)(=O)=O,203 to 205 °C
10,Cc1ccc(S(=O)(=O)OCC(O)Cc2c(Cl)cc3c(c2O)CCC3)cc1 (centres undefined),125 to 127 °C
11,COc1ccc(O)c(C(=O)Nc2cc(Cl)cc(Cl)c2)c1,230 to 232 °C
12,COc1ccc(Cc2nc3cc(Cl)cc(Br)c3o2)cc1OC,123 to 124 °C
13,CSc1cc2c(cc1C(F)(F)F)N(C(=O)Nc1ccc(C(=O)O)cc1)CC2,> 200 °C
14,CC(=O)OCC(CCn1cnc2c(=O)[nH]c(N)nc21)COC(C)=O,202 to 205 °C
15,CC(C)(C)OC(=O)Nc1cc(N2CCOCC2)cc(C(F)(F)F)c1,146 to 148 °C
16,[N-]=[N+]=NC1(O)CC(n2cc(I)c(=O)[nH]c2=O)OC1CO (centres undefined),126 to 130 °C
17,C=CC1(C=C)OC(C(=O)O)Oc2ccc(Cl)cc21 (centres undefined),144 °C
18,CCC(=O)N[C@H]1CC[C@H](CCN2CCN(c3nccc4ccoc34)CC2)CC1,188 °C

# The next lines start with the values.
row,melting point,Compound
1,128 to 131 °C,CCc1cc2c(NCc3ccccc3)ncnc2s1
2,80 to 82 °C,COC(=O)C1=Cc2ccccc2N(C)CCC1
3,205 to 206 °C,CCOC(=O)c1cc2c(nc(C)n2C)c(O)c1CCC(=O)c1ccccc1
4,258 to 259 °C,CCOc1ccc2cc(-c3nc(C(C)(C)C)[nH]c3-c3ccncc3)ccc2c1
5,210 to 211 °C,CCOCc1nc2c(N)nc3ccccc3c2n1CCC1(O)CC1
6,70 °C,O=CCCCN1C(=O)c2ccccc2C1=O
7,187 °C,CC(C)(O)c1cnn2c(-c3ccc(F)c(-c4ccccc4C#N)c3)cnc2n1
8,38 to 40 °C,COc1ccc(C2(O)CCC3CN(Cc4ccccc4)CCC3C2)cc1 (centres undefined)
9,66 to 68 °C,Cc1cccc(COc2ccc3c(c2)[C@@H](O)[C@H](Cc2cccnc2)CO3)n1 (relative stereo)
10,135 to 137 °C,CCOC(=O)c1ccc2cncc(I)c2n1
11,196 to 210 °C,O=C(O)Cc1ccc(-c2ccc(-c3ccccc3)cc2)o1
12,138 to 139 °C,Cc1oc(-c2ccccc2)nc1COc1ccc(COc2cccnc2CC#N)cc1
13,161 to 162 °C,CN1CC(CCN2CCN(c3ncccn3)CC2)c2nc3ccccc3n2C1=O (centres undefined)
14,118 to 120 °C,CC(C)NN(C[C@@H](O)[C@H](Cc1ccccc1)NC(=O)OCc1ccccc1)C(=O)OC(C)(C)C
15,84 to 85 °C,Cc1cccc(-n2nc(C)cc2-c2ccnc(N(C)C)c2)c1
16,195 to 198 °C,O=C1C=C(Nc2ccc(F)cc2)CCN1
17,191 to 194 °C,O=C(c1ccc(-c2ccccc2)cc1Cl)N1CCCC(Cc2nnn[nH]2)c2ccccc21 (centres undefined)
18,233 to 235 °C,COC(=O)c1cccc(NC(=O)c2ccc(OC)c([N+](=O)[O-])c2)c1
19,242 to 244 °C,NC(=O)Cc1ccc2noc(-c3ccc(Cl)cc3)c2c1
20,175 to 176 °C,CN(C)CC(=O)Nc1c(C(=O)c2ccccc2)[nH]c2cc(Cl)ccc12
21,238 to 239 °C,Nc1ncnc2[nH]cc(-c3ccccc3)c12
22,156 to 159 °C,COCc1cnc2c(NC(=O)c3ccccc3[N+](=O)[O-])cccc2c1N1CCN(C)C1=O

row,melting point,Compound
1,155 to 158 °C,NC(=O)N(c1ccc(-c2c(CCO)sc3ncnc(N)c23)cc1)c1cccc(C(F)(F)F)c1
2,86.7 to 92.3 °C,Cc1nc(OCCO)c(C#N)c(N2CCc3ccccc3CC2)n1
3,193 to 195 °C,O=C1N(c2ccc(Cl)cc2)c2ncccc2C1(Cc1ccncc1)Cc1ccccn1 (centres undefined)
4,142 to 146 °C,COc1cc(OC)cc(-c2ncoc2-c2ccc(N)cc2)c1
5,142 °C,COc1ccc(-n2nc(OC)cc2-c2ccc(OCCNC(N)=S)cc2)cc1
6,118 to 120 °C,O=C(O)[C@H]1CC[C@@H](C(=O)N(Cc2ccccc2)OCc2ccccc2)C1 (relative stereo)
7,53 to 55 °C,CCCCC(C(=O)N[C@@H](CC(=O)O)c1ccc2c(c1)OCO2)N1C(=O)N(Cc2ccccc2)C(=O)C1(C)C (some centres undefined)
8,132 to 135 °C,CC(C)(C(=O)Nc1cc(Cl)cc(Cl)c1)N1COC(C#N)=C(c2ccccc2)C1=O
9,175 °C,Cc1ccc2c(c1)-n1ccc3c1=C(CCC=3)c1nccn1-2
10,195 to 211 °C,CCN1CCc2cc(Nc3ncc(Cl)c(Nc4ccccc4C(=O)NC)n3)c(OC)cc2CC1
11,134 to 135 °C,CCOC(=O)c1cn(Cc2ccccc2)nc1OCc1ccc(OCc2nc(-c3ccco3)oc2C)c(O)c1
12,104 °C,CCCCCCCNC(=O)N(C)c1ccc(C)c(-c2ccc(CCC(=O)O)cc2)c1
13,139 to 142 °C,COc1ccc(C=O)cc1NC(=O)OCC1c2ccccc2-c2ccccc21
14,124 to 126 °C,COc1ccc(C(=O)c2c(-c3ccc(OC)cc3)sc3ccccc23)cc1
15,206 to 207 °C,CN(C)c1ccc(S(=O)(=O)Nc2cnc3ccc(Cl)cc3n2)cc1
16,106 °C,CCCCCCN1CCC(n2nc(-c3c(-c4ccccc4)nn4ccccc34)ccc2=O)CC1
17,55 to 58 °C,Cc1cccc(C(=O)c2ccc(Cl)cc2)c1O
18,173 to 177 °C,COc1cccc(-c2cc(Cl)cc3c2OC(C(F)(F)F)C(C(=O)O)=C3)c1 (centres undefined)
19,137 to 142 °C,NC(=O)COCC(Cc1ccccc1)NC(=O)[C@@H]1CCCN1C(=O)OCc1ccccc1 (some centres undefined)
20,215 to 218 °C,O=C1CCC(c2ccc3[nH]c(-c4cccc(C(F)(F)F)c4)cc3c2)=NN1
21,225 to 226 °C,Cc1cc(-c2nc3cccnn3c2-c2ccnc(NC(=O)c3ccc(Cl)nc3)c2)ccc1F
